This passage reports IC50 and solubility results from US20250092044A1, “Kinase Inhibitors” (Incyte Corporation, priority 2023, published 2025).

In data set [1] the target is catalytic domain (JH1) of human JAK2 (Homo sapiens (Human), UniProt O60674). Put plainly: JAK2 LanthaScreen JH1 Binding Assay. To be noted: read-out: JH1 Bind IC50. The gist of the method: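 FLAG-tagged biotinylated JH1 (aa 826-1132, baculovirus-expressed), 1.5 nM, with serially diluted compound, 50 nM fluorescent tracer and 0.5 nM streptavidin-Tb in pH 7.5 Tris buffer, 2 h at 25 °C; nonspecific binding with 2 mM ATP. TR-FRET read, IC50 by four-parameter fit.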
A general note: Time-resolved FRET reads energy transfer from a long-lived donor to a nearby acceptor.

The nature of another data set: FaSSIF Solubility Assay. To be noted: FaSSIF (fasted state simulated intestinal fluid), 25 °C, pH 6.5, fassif, thermodynamic from solid, FaSSIF pH=6.5, 25° C. The class given is physicochemical. From the text: The FaSSIF (Fasted State Simulated Intestinal Fluid) solubility assay can predict how an oral drug is likely to be dissolved and potentially absorbed in the upper intestine after drinking a glass of water. FaSSIF solubility assay utilizes biorelevant intestinal media (Biorelevant, Part #FFF01) comprised of physiological surfactants, bile salts, and phospholipids that are present in the gastrointestinal fluids it mimics. FaSSIF (pH=6.5) has the average pH of a fasted intestinal fluid with similar osmolarity. The FaSSIF buffer was prepared by adding 20 mL of phosphate buffer to FaSSIF Powder. The buffer was then added to the dry compound of interest at a concentration of 1 mg/mL and then incubated at 25° C. for 24 hours in a Rototherm Plus (Part #H2024). After incubation, the Eppendorf tubes were centrifuged and run on an Agilent 1260 LC-MS. The LC-MS method is a 5 min gradient method of 2% to 95% acetonitrile with water (0.05% TFA) using a Sunfire C18, 5 um 2.1×50 mm (Part #186002539) column. A dry reference compound of interest was diluted to a known 1 mg/mL concentration in 1:1 of water and acetonitrile. Step-wise serial dilutions were performed and run on an Agilent 1260 LC-MS using the same conditions to make a standard curve. The area under the curve is reported for the compound of interest in FaSSIF buffer and the reference standards. Calculations were performed and the predicted solubility, μg/mL, was reported for compounds of the examples.

In data set [2] the test system is STAT5 (Tyr694) phosphorylation in SET-2 cells. Put plainly: STAT5 (Tyr694) Phosphorylation Cell Based Assay. Conditions: Homo sapiens, 2 hours, read-out: SET2 IC50. The method in brief: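 SET-2 cells in RPMI with 10% FBS were exposed to compound for 2 h at 37 °C (0.5% DMSO final). After lysis, phospho-STAT5 (Tyr694) was read by HTRF (665/620 ratio) after 24 h antibody incubation at room temperature. IC50 was fitted from percent control activity versus log concentration.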

The structures appear in SMILES notation. Read-outs that look alike come from different tables or passages of the source. Some results are limits rather than exact numbers.

What is called IC50 is the concentration that inhibits the measured activity by half. By solubility is commonly meant how much of the substance goes into solution per volume.

Sequence of catalytic domain (JH1) of human JAK2 (O60674 826-1132): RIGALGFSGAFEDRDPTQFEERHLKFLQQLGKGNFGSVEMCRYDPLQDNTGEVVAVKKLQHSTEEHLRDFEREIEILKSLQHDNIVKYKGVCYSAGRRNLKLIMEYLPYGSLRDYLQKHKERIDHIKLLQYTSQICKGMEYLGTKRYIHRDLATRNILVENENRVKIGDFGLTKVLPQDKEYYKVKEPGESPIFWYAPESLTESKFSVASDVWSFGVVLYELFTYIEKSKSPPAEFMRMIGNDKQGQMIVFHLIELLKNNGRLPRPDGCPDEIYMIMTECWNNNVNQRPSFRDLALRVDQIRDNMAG

With `COc1nn(C)cc1-c1[nH]c2ncc3c(c2c1-c1ccc2c(cnn2C)c1)n(C1CCOCC1)c(=O)n3C` [Comparative Example A, reference compound], the IC50 in data set [1] was above 1000 nM. Besides, the figures for the solubility at 24 h in the data set “FaSSIF Solubility Assay” (read-out: FaSSIF solubility) and in “FaSSIF Solubility Assay” (read-out: Solubility Fassif) were below 20 µg/mL and at most 50 µg/mL, respectively.

As to `COc1nn(C)cc1-c1[nH]c2ncc3c(c2c1-c1ccc2c(cnn2C)c1)n([C@H]1CC[C@@H](CC#N)CC1)c(=O)n3C` [E, reference compound], in data set [1], the IC50 is above 1000 nM. In addition, the solubility at 24 h in “FaSSIF Solubility Assay” (read-out: Solubility Fassif) was at most 50 µg/mL.

With `CCNC(=O)c1ccc(-c2[nH]c3ncc4c(c3c2-c2ccc3c(cnn3C(C)C)c2)n([C@@H]2CC[C@@H](NC(=O)OC)C2)c(=O)n4C)cc1F` [Example 6, Methyl ((1R,3R)-3-(7-(4-(ethylcarbamoyl)-3-fluorophenyl)-8-(1-isopropyl-1H-indazol-5-yl)-3-methyl-2-oxo-3,6-dihydroimidazo[4,5-d]pyrrolo[2,3-b]pyridin-1(2H)-yl)cyclopentyl)carbamate], the values for the IC50 in data set [1] and in data set [2] were above 1000 nM and at most 300 nM, respectively.

Take `COC(=O)N[C@@H]1CC[C@@H](n2c(=O)n(C)c3cnc4[nH]c(-c5ccc(C(=O)NC6CC6)c(F)c5)c(-c5ccc6c(cnn6C(C)C)c5)c4c32)C1` [Example 8, Methyl ((1R,3R)-3-(7-(4-(cyclopropylcarbamoyl)-3-fluorophenyl)-8-(1-isopropyl-1H-indazol-5-yl)-3-methyl-2-oxo-3,6-dihydroimidazo[4,5-d]pyrrolo[2,3-b]pyridin-1(2H)-yl)cyclopentyl)carbamate]: the IC50 in data set [1] was above 1000 nM; in data set [2], 300 to 800 nM.

As to `COC(=O)N[C@@H]1CC[C@@H](n2c(=O)n(C)c3cnc4[nH]c(-c5ccc(C(=O)NC6CC6(F)F)c(F)c5)c(-c5ccc6c(cnn6C(C)C)c5)c4c32)C1` (stereo partly drawn) [Example 9, Methyl ((1R,3R)-3-(7-(4-((2,2-difluorocyclopropyl)carbamoyl)-3-fluorophenyl)-8-(1-isopropyl-1H-indazol-5-yl)-3-methyl-2-oxo-3,6-dihydroimidazo[4,5-d]pyrrolo[2,3-b]pyridin-1(2H)-yl)cyclopentyl)carbamate], the results for the IC50 in data set [1] and in data set [2] were above 1000 nM and 300 to 800 nM, respectively.

Regarding `COC(=O)N[C@@H]1CC[C@@H](n2c(=O)n(C)c3cnc4[nH]c(-c5ccc(C(=O)NC6CC6C(F)(F)F)c(F)c5)c(-c5ccc6c(cnn6C(C)C)c5)c4c32)C1` (stereo partly drawn) [Example 10, Methyl ((1R,3R)-3-(7-(3-fluoro-4-((2-(trifluoromethyl)cyclopropyl)carbamoyl)phenyl)-8-(1-isopropyl-1H-indazol-5-yl)-3-methyl-2-oxo-3,6-dihydroimidazo[4,5-d]pyrrolo[2,3-b]pyridin-1(2H)-yl)cyclopentyl)carbamate], the IC50 in data set [1] was above 1000 nM; in data set [2] it was 300 to 800 nM.

With `COC(=O)N[C@@H]1CC[C@@H](n2c(=O)n(C)c3cnc4[nH]c(-c5ccc(C(=O)NCC(F)(F)F)c(F)c5)c(-c5ccc6c(cnn6C(C)C)c5)c4c32)C1` [Example 11, Methyl ((1R,3R)-3-(7-(3-fluoro-4-((2,2,2-trifluoroethyl)carbamoyl)phenyl)-8-(1-isopropyl-1H-indazol-5-yl)-3-methyl-2-oxo-3,6-dihydroimidazo[4,5-d]pyrrolo[2,3-b]pyridin-1(2H)-yl)cyclopentyl)carbamate], the IC50 was above 1000 nM in data set [1] and at most 300 nM in data set [2].

For the molecule `CNC(=O)c1ccc(-c2[nH]c3ncc4c(c3c2-c2ccc3c(cnn3C(C)C)c2)n([C@@H]2CC[C@@H](NC(=O)OC)C2)c(=O)n4C)cc1F` [Example 12, Methyl ((1R,3R)-3-(7-(3-fluoro-4-(methylcarbamoyl)phenyl)-8-(1-isopropyl-1H-indazol-5-yl)-3-methyl-2-oxo-3,6-dihydroimidazo[4,5-d]pyrrolo[2,3-b]pyridin-1(2H)-yl)cyclopentyl)carbamate], the results for the IC50 in data set [1] and in data set [2] were above 1000 nM and at most 300 nM, respectively.

For `COC(=O)N[C@@H]1CC[C@@H](n2c(=O)n(C)c3cnc4[nH]c(-c5ccc(C(=O)NC6(C(F)(F)F)CC6)c(F)c5)c(-c5ccc6c(cnn6C(C)C)c5)c4c32)C1` [Example 13, Methyl ((1R,3R)-3-(7-(3-fluoro-4-((1-(trifluoromethyl)cyclopropyl)carbamoyl)phenyl)-8-(1-isopropyl-1H-indazol-5-yl)-3-methyl-2-oxo-3,6-dihydroimidazo[4,5-d]pyrrolo[2,3-b]pyridin-1(2H)-yl)cyclopentyl)carbamate], the results for the IC50 in data set [1] and in data set [2] were above 1000 nM and 300 to 800 nM, respectively.

Regarding `COCCNC(=O)c1ccc(-c2[nH]c3ncc4c(c3c2-c2ccc3c(cnn3C(C)C)c2)n([C@@H]2CC[C@@H](NC(=O)OC)C2)c(=O)n4C)cc1F` [Example 14, Methyl ((1R,3R)-3-(7-(3-fluoro-4-((2-methoxyethyl)carbamoyl)phenyl)-8-(1-isopropyl-1H-indazol-5-yl)-3-methyl-2-oxo-3,6-dihydroimidazo[4,5-d]pyrrolo[2,3-b]pyridin-1(2H)-yl)cyclopentyl)carbamate], the IC50 in data set [1] was above 1000 nM; in data set [2], at most 300 nM.

On to `COCCN(C)C(=O)c1ccc(-c2[nH]c3ncc4c(c3c2-c2ccc3c(cnn3C(C)C)c2)n([C@@H]2CC[C@@H](NC(=O)OC)C2)c(=O)n4C)cc1F` [Example 15, Methyl ((1R,3R)-3-(7-(3-fluoro-4-((2-methoxyethyl)(methyl)carbamoyl)phenyl)-8-(1-isopropyl-1H-indazol-5-yl)-3-methyl-2-oxo-3,6-dihydroimidazo[4,5-d]pyrrolo[2,3-b]pyridin-1(2H)-yl)cyclopentyl)carbamate], for which the IC50 is above 1000 nM in data set [1] and at most 300 nM in data set [2].

`COC(=O)N[C@@H]1CC[C@@H](n2c(=O)n(C)c3cnc4[nH]c(-c5ccc(C(=O)N6CCOCC6)c(F)c5)c(-c5ccc6c(cnn6C(C)C)c5)c4c32)C1` [Example 16, Methyl ((1R,3R)-3-(7-(3-fluoro-4-(morpholine-4-carbonyl)phenyl)-8-(1-isopropyl-1H-indazol-5-yl)-3-methyl-2-oxo-3,6-dihydroimidazo[4,5-d]pyrrolo[2,3-b]pyridin-1(2H)-yl)cyclopentyl)carbamate]: the IC50 was above 1000 nM in data set [1] and at most 300 nM in data set [2].

For `CNC(=O)c1ccc(-c2[nH]c3ncc4c(c3c2-c2ccc3c(cnn3C(C)C)c2)n([C@@H]2CC[C@@H](NC(=O)OC)C2)c(=O)n4C)cc1` [Example 21, Methyl ((1R,3R)-3-(8-(1-isopropyl-1H-indazol-5-yl)-3-methyl-7-(4-(methylcarbamoyl)phenyl)-2-oxo-3,6-dihydroimidazo[4,5-d]pyrrolo[2,3-b]pyridin-1(2H)-yl)cyclopentyl)carbamate], the IC50 in data set [1] was above 1000 nM; in data set [2], 300 to 800 nM.

Turning to `CCNC(=O)c1ccc(-c2[nH]c3ncc4c(c3c2-c2ccc3c(cnn3C(C)C)c2)n([C@@H]2CC[C@@H](NC(=O)OC)C2)c(=O)n4C)cc1` [Example 23, Methyl ((1R,3R)-3-(7-(4-(ethylcarbamoyl)phenyl)-8-(1-isopropyl-1H-indazol-5-yl)-3-methyl-2-oxo-3,6-dihydroimidazo[4,5-d]pyrrolo[2,3-b]pyridin-1(2H)-yl)cyclopentyl)carbamate], the results for the IC50 in data set [1] and in data set [2] were above 1000 nM and at most 300 nM, respectively.
